Experimental data from paper PMC6138237, “Machine intelligence decrypts β-lapachone as an allosteric 5-lipoxygenase inhibitor” (Chemical Science, 2018).
pIC50: −log10 of the molar value. Read-outs that look alike come from different tables or passages of the source.

Assays:
12-LO = biological target: T1, 12-LO (Homo sapiens, UniProt P18054); assay: 12-LO inhibition assay, Cerep (Method A, photometry); assay type: biochemical
T1 sequence (P18054 1-663): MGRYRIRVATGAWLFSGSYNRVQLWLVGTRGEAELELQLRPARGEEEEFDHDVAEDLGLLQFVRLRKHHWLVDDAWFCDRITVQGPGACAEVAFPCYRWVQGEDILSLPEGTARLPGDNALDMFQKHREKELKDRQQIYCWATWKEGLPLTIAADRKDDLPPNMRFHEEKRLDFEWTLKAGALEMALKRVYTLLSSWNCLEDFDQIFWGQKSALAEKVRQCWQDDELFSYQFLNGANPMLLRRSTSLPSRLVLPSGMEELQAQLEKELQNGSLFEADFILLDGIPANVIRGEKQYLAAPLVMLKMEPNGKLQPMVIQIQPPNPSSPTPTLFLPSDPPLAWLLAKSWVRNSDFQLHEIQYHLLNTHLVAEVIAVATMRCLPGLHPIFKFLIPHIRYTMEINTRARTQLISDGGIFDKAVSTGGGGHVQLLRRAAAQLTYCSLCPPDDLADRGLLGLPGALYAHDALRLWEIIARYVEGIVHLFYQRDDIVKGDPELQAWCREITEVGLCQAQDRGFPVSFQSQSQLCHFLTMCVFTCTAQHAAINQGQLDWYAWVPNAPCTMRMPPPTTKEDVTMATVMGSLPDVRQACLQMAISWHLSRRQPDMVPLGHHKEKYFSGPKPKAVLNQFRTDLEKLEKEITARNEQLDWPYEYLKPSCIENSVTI

[1] = Dynamic light scattering (colloidal aggregation); assay type: physicochemical; details: for Count rate (kcps): 25 °C
FGFR3 = FGFR3 (Homo sapiens, UniProt P22607); assay: ExpresS Diversity Kinase Profile, Cerep (LANCE): FGFR3; assay type: biochemical
Sequence of FGFR3 (P22607 23-806): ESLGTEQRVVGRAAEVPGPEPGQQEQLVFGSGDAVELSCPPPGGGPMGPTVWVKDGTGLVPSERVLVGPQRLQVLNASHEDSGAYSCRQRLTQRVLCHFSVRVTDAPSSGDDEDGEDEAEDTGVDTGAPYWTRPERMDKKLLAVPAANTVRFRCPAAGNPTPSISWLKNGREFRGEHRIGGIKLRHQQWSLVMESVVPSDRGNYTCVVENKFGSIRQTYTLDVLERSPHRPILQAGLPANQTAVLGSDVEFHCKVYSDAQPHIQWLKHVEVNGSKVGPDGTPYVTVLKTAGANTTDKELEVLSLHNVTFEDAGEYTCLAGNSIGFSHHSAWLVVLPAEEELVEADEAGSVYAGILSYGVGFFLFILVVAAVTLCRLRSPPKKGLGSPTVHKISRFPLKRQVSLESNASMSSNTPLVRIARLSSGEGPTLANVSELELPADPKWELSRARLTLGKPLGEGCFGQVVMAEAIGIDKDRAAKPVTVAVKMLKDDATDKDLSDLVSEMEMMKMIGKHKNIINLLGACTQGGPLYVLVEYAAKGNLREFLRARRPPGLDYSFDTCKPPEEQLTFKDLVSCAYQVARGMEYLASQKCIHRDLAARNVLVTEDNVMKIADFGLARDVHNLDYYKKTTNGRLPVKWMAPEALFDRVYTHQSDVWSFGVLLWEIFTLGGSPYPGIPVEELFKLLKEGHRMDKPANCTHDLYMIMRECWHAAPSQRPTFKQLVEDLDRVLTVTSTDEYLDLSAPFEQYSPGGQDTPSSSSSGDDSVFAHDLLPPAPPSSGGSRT

TRKA = TRKA (Homo sapiens, UniProt P04629); assay: ExpresS Diversity Kinase Profile, Cerep (LANCE): TRKA; assay type: biochemical
Sequence of TRKA (P04629 33-796): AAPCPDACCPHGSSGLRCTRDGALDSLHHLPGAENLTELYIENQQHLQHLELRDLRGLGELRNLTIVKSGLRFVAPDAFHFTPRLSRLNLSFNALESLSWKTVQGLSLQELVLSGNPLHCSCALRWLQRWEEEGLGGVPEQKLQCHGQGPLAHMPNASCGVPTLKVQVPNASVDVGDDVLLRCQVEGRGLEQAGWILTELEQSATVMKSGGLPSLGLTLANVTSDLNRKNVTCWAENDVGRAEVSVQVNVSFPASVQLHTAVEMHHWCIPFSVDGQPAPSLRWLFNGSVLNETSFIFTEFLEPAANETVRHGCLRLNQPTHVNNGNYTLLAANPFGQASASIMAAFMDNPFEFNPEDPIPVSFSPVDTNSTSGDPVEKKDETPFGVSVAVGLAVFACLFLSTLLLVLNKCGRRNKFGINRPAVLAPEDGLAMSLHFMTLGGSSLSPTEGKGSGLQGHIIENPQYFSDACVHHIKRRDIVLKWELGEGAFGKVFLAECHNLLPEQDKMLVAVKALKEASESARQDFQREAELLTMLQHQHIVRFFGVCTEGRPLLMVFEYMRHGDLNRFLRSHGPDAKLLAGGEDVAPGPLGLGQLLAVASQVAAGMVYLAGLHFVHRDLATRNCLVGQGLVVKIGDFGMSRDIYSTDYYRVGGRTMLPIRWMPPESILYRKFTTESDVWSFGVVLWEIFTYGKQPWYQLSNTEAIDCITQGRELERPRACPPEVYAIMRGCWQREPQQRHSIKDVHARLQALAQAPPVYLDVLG

GSK3β = GSK3β (Homo sapiens, UniProt P49841); assay: ExpresS Diversity Kinase Profile, Cerep (LANCE): GSK3β; assay type: biochemical
Sequence of GSK3β (P49841 whole entry): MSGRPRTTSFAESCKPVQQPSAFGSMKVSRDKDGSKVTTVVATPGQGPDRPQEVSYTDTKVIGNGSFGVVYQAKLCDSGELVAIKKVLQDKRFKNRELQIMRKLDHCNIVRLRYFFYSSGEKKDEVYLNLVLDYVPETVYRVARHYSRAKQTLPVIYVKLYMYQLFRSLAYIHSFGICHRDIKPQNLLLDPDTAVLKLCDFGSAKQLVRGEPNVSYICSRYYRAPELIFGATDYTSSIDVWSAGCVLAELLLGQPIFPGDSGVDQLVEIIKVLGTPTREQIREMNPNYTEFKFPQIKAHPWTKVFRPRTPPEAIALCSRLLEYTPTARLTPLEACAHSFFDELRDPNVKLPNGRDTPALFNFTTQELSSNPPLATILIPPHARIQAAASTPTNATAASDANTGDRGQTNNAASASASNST

p38α = p38α (Homo sapiens, UniProt Q16539); assay: ExpresS Diversity Kinase Profile, Cerep (LANCE): p38α; assay type: biochemical; details: 150 µM
Sequence of p38α (Q16539 whole entry): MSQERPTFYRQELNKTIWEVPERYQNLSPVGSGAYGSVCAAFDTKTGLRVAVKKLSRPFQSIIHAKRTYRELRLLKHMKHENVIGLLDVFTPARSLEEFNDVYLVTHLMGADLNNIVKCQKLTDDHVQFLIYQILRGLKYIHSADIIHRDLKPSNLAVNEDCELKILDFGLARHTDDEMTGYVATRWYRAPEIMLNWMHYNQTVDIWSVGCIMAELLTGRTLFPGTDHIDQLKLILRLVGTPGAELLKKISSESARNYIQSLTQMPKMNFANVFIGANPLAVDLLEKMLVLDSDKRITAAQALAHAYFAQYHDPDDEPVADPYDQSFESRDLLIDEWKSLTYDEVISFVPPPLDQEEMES

CaMK2α = CaMK2α (Homo sapiens, UniProt Q9UQM7); assay: ExpresS Diversity Kinase Profile, Cerep (LANCE): CaMK2α; assay type: biochemical
Sequence of CaMK2α (Q9UQM7 whole entry): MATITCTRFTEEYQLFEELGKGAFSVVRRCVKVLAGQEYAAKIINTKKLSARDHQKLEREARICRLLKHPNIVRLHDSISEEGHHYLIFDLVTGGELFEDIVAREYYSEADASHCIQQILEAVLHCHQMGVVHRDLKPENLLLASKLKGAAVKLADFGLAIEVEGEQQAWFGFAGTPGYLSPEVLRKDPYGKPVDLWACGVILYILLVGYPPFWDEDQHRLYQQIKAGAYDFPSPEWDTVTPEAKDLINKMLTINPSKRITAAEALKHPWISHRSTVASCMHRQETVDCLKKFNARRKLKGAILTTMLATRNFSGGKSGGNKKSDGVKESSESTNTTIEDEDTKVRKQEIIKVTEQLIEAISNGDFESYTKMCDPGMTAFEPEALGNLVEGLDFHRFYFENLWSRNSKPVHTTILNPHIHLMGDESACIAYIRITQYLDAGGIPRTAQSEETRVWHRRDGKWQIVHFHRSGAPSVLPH

MAPKAPK2 = MAPKAPK2 (Homo sapiens, UniProt P49137); assay: ExpresS Diversity Kinase Profile, Cerep (LANCE): MAPKAPK2; assay type: biochemical
Sequence of MAPKAPK2 (P49137 whole entry): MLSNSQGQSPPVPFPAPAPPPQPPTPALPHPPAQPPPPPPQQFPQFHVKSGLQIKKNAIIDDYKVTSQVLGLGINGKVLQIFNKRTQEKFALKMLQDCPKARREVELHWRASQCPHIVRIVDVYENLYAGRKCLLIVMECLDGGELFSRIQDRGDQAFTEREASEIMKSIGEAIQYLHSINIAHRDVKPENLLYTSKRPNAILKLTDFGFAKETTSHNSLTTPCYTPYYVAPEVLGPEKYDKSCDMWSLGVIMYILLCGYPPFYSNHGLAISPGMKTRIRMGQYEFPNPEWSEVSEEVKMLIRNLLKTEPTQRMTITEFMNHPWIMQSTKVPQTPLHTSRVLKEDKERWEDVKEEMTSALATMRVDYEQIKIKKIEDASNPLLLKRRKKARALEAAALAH

Pim2 = Pim2 (Homo sapiens, UniProt Q9P1W9); assay: ExpresS Diversity Kinase Profile, Cerep (LANCE): Pim2; assay type: biochemical; details: Flag: Interference
Sequence of Pim2 (Q9P1W9 whole entry): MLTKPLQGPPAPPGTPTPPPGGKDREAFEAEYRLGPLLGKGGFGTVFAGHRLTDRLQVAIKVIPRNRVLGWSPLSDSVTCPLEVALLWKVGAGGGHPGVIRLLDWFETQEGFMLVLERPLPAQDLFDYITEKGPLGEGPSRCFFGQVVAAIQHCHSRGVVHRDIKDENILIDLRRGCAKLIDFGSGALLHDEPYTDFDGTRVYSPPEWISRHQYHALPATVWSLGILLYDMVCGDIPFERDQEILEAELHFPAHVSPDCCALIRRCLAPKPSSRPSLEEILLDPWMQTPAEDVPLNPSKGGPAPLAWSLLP

PAK4 = PAK4 (Homo sapiens, UniProt O96013); assay: ExpresS Diversity Kinase Profile, Cerep (LANCE): PAK4; assay type: biochemical
Sequence of PAK4 (O96013 whole entry): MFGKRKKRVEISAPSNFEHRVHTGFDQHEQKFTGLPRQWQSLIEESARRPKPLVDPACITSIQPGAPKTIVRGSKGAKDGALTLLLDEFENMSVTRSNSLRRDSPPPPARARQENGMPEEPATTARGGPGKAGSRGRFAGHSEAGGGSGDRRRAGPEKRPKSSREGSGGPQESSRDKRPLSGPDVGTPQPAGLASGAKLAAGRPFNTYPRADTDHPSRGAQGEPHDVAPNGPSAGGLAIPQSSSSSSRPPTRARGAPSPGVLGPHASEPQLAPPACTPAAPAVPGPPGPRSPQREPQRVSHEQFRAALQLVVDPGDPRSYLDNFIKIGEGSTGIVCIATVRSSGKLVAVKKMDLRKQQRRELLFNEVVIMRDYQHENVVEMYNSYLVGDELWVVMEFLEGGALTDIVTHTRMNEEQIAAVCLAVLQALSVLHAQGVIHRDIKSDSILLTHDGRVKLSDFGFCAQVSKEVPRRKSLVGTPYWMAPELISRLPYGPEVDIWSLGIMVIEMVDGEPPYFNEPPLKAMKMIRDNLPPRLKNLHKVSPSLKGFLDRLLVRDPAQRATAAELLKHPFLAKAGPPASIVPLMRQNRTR

15-LO = 15-LO inhibition in intact human neutrophils; details: read-out: IC50 (15-LO), without DTT
EP2 [2] = biological target: T2, EP2 (Homo sapiens, UniProt P43116); assay: EP2 functional agonist assay, Cerep (cAMP, HTRF)
T2 sequence (P43116 whole entry): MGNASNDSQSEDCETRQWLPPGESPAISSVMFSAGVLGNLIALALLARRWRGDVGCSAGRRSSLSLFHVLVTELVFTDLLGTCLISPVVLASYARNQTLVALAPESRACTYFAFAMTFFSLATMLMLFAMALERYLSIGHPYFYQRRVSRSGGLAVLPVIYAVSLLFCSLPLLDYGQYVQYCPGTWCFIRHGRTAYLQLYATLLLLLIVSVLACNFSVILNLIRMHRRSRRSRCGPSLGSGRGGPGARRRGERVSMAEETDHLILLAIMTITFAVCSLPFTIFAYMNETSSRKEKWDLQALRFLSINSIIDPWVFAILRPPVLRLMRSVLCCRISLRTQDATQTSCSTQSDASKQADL

Escherichia coli K12 = assay: Minimum inhibitory concentration assay, Escherichia coli; details: concentrations up to 50 µM
EP2 [3] = biological target: T2, EP2; assay: EP2 functional antagonist assay, Cerep (PGE2 100 nM, cAMP)
EP3 = biological target: T3, EP3 (Homo sapiens, UniProt P43115); assay: EP3 functional antagonist assay, Cerep (sulprostone 0.1 nM, impedance)
T3 sequence (P43115 1-390): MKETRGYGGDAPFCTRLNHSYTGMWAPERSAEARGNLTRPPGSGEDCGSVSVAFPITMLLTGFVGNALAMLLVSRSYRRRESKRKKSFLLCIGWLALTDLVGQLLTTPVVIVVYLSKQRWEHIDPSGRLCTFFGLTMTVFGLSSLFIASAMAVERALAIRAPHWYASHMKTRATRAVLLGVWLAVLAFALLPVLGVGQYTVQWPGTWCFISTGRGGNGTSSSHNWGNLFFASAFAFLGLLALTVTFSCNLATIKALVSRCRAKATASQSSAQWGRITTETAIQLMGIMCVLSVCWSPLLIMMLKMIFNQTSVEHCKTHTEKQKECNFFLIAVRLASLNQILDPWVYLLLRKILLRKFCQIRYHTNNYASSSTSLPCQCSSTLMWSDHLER

[4] = Flag: Interference, read-out: % Inhibition of control values, 1st measurement
[5] = Flag: Interference, read-out: % Inhibition of control values, 2nd measurement
[6] = n = 2, Flag: Interference, read-out: % Inhibition of control values, Mean
[7] = n = 2, read-out: % Inhibition of control values, Mean
[8] = read-out: % Inhibition of control values, 1st measurement
[9] = read-out: % Inhibition of control values, 2nd measurement

Q: Which inhibition at 5 µM (12-LO; 12-LO, 5 µM, read-out: % inhibition of control values, 1st measure) does the source give for `CC1(C)CCC2=C(O1)c1ccccc1C(=O)C2=O` [β-Lapachone] here?
A: 40.7%

Q: And the inhibition at 5 µM (12-LO; 12-LO, 5 µM, read-out: % inhibition of control values, 2nd measure)?
A: 35.3%

Q: What about the inhibition at 5 µM (12-LO; read-out: % inhibition of control values, Mean) of the same compound?
A: 38%

Q: What about the “Count rate (kcps)” value ([1]; 25 µM in H2O + 0.1% DMSO) of the same compound?
A: 60.7 kcps

Q: And the “Count rate (kcps)” value ([1]; 50 µM in H2O + 0.1% DMSO)?
A: 47.6 kcps

Q: And the “Count rate (kcps)” value ([1]; 100 µM in H2O + 0.1% DMSO)?
A: 136.1 kcps

Q: What about the “aggregation by dynamic light scattering” value ([1]; at relevant concentrations) of the same compound?
A: no aggregation

Q: And the inhibition at 150 µM (FGFR3; [4])?
A: 76.5%

Q: And the inhibition at 150 µM (FGFR3; [5])?
A: 85.1%

Q: And the inhibition at 150 µM (FGFR3; [6])?
A: 80.8%

Q: What about the inhibition at 150 µM (TRKA; [4]) of the same compound?
A: 38.1%

Q: What about the inhibition at 150 µM (TRKA; [5]) of the same compound?
A: 45.7%

Q: And the inhibition at 150 µM (TRKA; [6])?
A: 41.9%

Q: And the inhibition at 150 µM (GSK3β; [7])?
A: 94.2%

Q: What about the inhibition at 150 µM (GSK3β; [8]) of the same compound?
A: 95%

Q: What about the inhibition at 150 µM (GSK3β; [9]) of the same compound?
A: 93.4%

Q: And the inhibition at 150 µM (p38α; [7])?
A: 25.1%

Q: And the inhibition at 150 µM (p38α; [8])?
A: 27.1%

Q: What about the inhibition at 150 µM (p38α; [9]) of the same compound?
A: 23.1%

Q: What about the inhibition at 150 µM (CaMK2α; [7]) of the same compound?
A: 54.8%

Q: And the inhibition at 150 µM (CaMK2α; [8])?
A: 61.5%

Q: What about the inhibition at 150 µM (CaMK2α; [9]) of the same compound?
A: 48%

Q: And the inhibition at 150 µM (MAPKAPK2; [4])?
A: -14.5%

Q: And the inhibition at 150 µM (MAPKAPK2; [5])?
A: -2.7%

Q: What about the inhibition at 150 µM (MAPKAPK2; [6]) of the same compound?
A: -8.6%

Q: What about the inhibition at 150 µM (Pim2; [8]) of the same compound?
A: 79.6%

Q: What about the inhibition at 150 µM (Pim2; [9]) of the same compound?
A: 82.6%

Q: And the inhibition at 150 µM (PAK4; [7])?
A: -1.9%

Q: What about the inhibition at 150 µM (PAK4; [8]) of the same compound?
A: -3.7%

Q: And the inhibition at 150 µM (PAK4; [9])?
A: 0%

Q: What about the pIC50 (15-LO) of the same compound?
A: < 4.52

Q: What about the remaining activity at 150 µM (EP2 [2]; read-out: % of control values, 1st measurement) of the same compound?
A: 12.3%

Q: What about the remaining activity at 150 µM (EP2 [2]; read-out: % of control values, 2nd measurement) of the same compound?
A: 14.8%

Q: What about the remaining activity at 150 µM (EP2 [2]; read-out: % of control values, Mean) of the same compound?
A: 13.5%

Q: And the “phenotypic effects on Escherichia coli” value (Escherichia coli K12)?
A: No phenotypic effects

Q: What about the pIC50 (EP2 [3]) of the same compound?
A: ~4.00

Q: What about the Kb (EP3) of the same compound?
A: 22 µM

Q: What about the “ligand efficiency (LE)” value (EP3; EP3) of the same compound?
A: 0.36

Q: What about the pIC50 (EP3; Experimental –log(IC50 or KD), EP3) of the same compound?
A: 4.70

Q: And the pIC50 (EP3; IC50, EP3 concentration–inhibition curve, n = 2)?
A: 4.20
